Source: US9505798B2, “Steroid compounds as RORyt modulators and uses thereof” (New York University, priority 2010, dated 2016)

How the values were obtained:
[1] = system: experimental autoimmune encephalomyelitis (EAE); assay: Active EAE (MOG35-55/CFA) in C57BL/6 mice; assay type: in vivo, mouse
[2] = system: Th17 cell transfer-mediated EAE; assay: Th17 cell transfer-mediated (passive) EAE; assay type: in vivo, mouse; details: daily from day 2, RAG-2-deficient mice
[3] = system: aryl hydrocarbon receptor (AHR); assay: AHR ligand FICZ effect on RORα-dependent IL-17a expression; assay type: cell-based, mouse; details: FICZ added
RORγt = biological target: T1, RORγt (Mus musculus, UniProt P51450); assay type: cell-based
T1 construct: expressed in transfected cells; host or cells: mouse naive CD4+ T cells, retroviral MIGr vector
Method: Naive CD25^− CD62L^+CD44^low/int cells were sorted from RORγt^fl/fl mice and transduced with control-IRES-GFP (WT) or CRE-IRES-GFP (KO) retrovirus. […] FACS-sorted naive T cells were transduced with retroviral vectors encoding murine RORα-IRES-GFP or RORγt-IRES-GFP on Day 1 (16 h after TCR stimulation) and GFP expressing cells were gated for analysis on Day 5. […] Lymphocytes were isolated on day 21 after disease induction. The cells were stimulated for 4 h with PMA/Ionomycin and stained for surface markers and intracellular cytokines.
T cells were purified from lymph nodes and spleens of six to eight weeks old B6 mice (Taconic), by magnetically depleting B220^+ cells (autoMACS, Miltenyi), and then sorting CD8^−DAPI^−CD19^−CD4^+CD25^−CD62L^+CD44^low/Int naive T cells on a FACSAria (BD). […] For T cell polarization, 200 μl cells were seeded at 0.4×10^5 cells per mL in 96-well plates pre-coated with anti-CD3ε (5 μg/mL) and anti-CD28 (10 μg/mL). Cells were cultured for 4-5 days in Th17 (TGF-β (0.3 ng/mL), IL-6 (20 ng/mL), and anti-IFN-γ and anti-IL-4 (2 ng/mL)), Th1 (IL-12 (10 ng/mL), IL-2 (10 U/mL) and anti-IL-4 (2 ng/mL)), or Th2 (IL-4 (10 ng/mL), and anti-P35 and anti-IFN-γ 2 ng/mL)) conditions. For ectopic expression ROR proteins, native CD4^+ T cells were infected with retroviral MIGr-control, MIGr-RORα or MIGr-RORγ 24 hrs after activation, and cultured without exogenous cytokines or only with IL-6. At day 1, compounds dissolved in DMSO were added. For cytokine analysis, cells were incubated for 5 hours with phorbol 12-myristate 13-acetate (50 ng/mL; Sigma), ionomycin (500 ng/mL; Sigma) and GolgiStop (BD). Intracellular cytokine staining was performed according to the manufacturer's protocol (Cytofix/Cytoperm buffer set from BD) with alexa647-conjugated anti-IL-17a (eBioscience), and PE-conjugated anti-IFN-γ or anti-IL-4 (eBioscience). An LSR II (BD Biosciences) and FlowJo software (Tree Star) were used for flow cytometry and analysis. Dead cells were excluded using the Live/Dead fixable aqua dead cell stain kit (Invitrogen).

VP16 = biological target: T2, VP16 (Human herpesvirus 1, UniProt P06492); assay: S2 cell VP16 luciferase reporter; assay type: cell-based, herpes simplex virus; details: 10 μM, FIG. 1c
T2 construct: herpes simplex virus VP16 (amino acids 413 to end); expressed in transfected cells
Source text: The Drosophila S2 cell line was originally purchased from Invitrogen and was maintained in Schneider's medium supplemented with 10% heat-inactivated bovine fetal calf serum and antibiotics (Invitrogen). Gal4 DNA binding domain (G4 DBD) corresponding to amino acids 1 through 147 of Gal4 protein was PCR amplified to make a fusion construct with mouse RORγt (amino acids 79 to the carboxyl terminal end) lacking its DNA binding domain. The resulting chimeric gene was subcloned into the copper inducible pMT/V5-His A vector (Invitrogen). In a similar manner, Gal4 fusion constructs were prepared with mouse RORα (amino acids 142 to end) or Drosophila DHR3 (amino acids 120 to end). Coding sequences for firefly luciferase (Promega) were PCR amplified and subcloned into pUAST vector containing Gal4 binding enhancer sequences. Renilla luciferase construct under the polIII promoter was obtained from Dr. Dasgupta's laboratory (NYU medical center). In order to generate stable cell lines, cells were co-transfected with pMT-G4 DBD-RORγt, pMT-G4 DBD-RORα, pMT-G4 DBD-DHR3, or pMT-G4 DBDVP16 and pHygro plasmids (Invitrogen) and screened for resistant colonies in the presence of hygromycin (0.3 mg/mL). […]

T1 sequence (P51450 other isoform, or with tags, fused parts or gaps): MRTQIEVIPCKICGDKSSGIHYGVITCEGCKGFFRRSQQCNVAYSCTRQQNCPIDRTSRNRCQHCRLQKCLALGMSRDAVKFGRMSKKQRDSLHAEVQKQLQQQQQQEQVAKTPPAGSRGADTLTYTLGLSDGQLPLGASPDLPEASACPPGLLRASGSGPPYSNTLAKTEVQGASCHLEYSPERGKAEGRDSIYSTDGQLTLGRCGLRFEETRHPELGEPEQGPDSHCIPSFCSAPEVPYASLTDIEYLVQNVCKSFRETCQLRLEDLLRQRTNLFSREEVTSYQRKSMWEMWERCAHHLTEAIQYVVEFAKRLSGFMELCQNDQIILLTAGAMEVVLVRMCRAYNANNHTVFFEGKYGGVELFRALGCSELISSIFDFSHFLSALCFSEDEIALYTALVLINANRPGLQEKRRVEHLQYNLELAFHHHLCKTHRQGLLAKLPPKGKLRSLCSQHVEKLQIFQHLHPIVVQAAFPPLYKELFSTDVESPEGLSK
T2 sequence (P06492 413-490): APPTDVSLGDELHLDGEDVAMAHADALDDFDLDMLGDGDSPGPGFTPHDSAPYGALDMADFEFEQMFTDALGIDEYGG

With `C[C@H]1O[C@@H](O[C@H]2[C@@H](O)C[C@H](O[C@H]3[C@@H](O)C[C@H](O[C@H]4CC[C@@]5(C)[C@H](CC[C@@H]6[C@@H]5C[C@@H](O)[C@]5(C)[C@@H](C7=CC(=O)OC7)CC[C@]65O)C4)O[C@@H]3C)O[C@@H]2C)C[C@H](O)[C@@H]1O` [Digoxin] the “EAE onset and severity of progression” value ([1]; IP daily from day 2) was “not only delayed onset, but also reduced severity”, the “percentage of IFN-γ-producing Th1 cells infiltrating the spinal cord” value ([1]; compared to DMSO-treated mice) was “approximately the same” and the “reduction of percentage of IL-17-producing T cells infiltrating the spinal cord” value ([1]; compared to DMSO-treated mice, day 21) was “more than 50%”. For the same compound, the “total number of mononuclear cells infiltrating the spinal cord” value ([1]; mouse, in vivo) was “markedly reduced”, the “onset and severity of Th17 cell transfer-mediated EAE” value [2] was “delayed onset and reduced severity” and the AHR activity [3] was “unaffected”. For the same compound, the “RORγt- versus RORα-mediated induction of IL-17a” value (RORγt) was “suppressed RORγt—but not RORα-mediated induction of IL-17a” and the “effect on transcriptional activity of VP16” value (VP16) was “no effect”.
